Test results taken from patent US20260234144A1 (TAY THERAPEUTICS LIMITED, priority 2023, published 2026).

Test system: R223X stop codon in the mutated luciferase gene, ADXC8 luciferase reporter cell line
Experiment: cells
Type: cell-based
Settings: ADXC8 cells, 24 hours; for Emax / EC (100% of 200 uM G418 response): 24 h; for Emax: read-out: Fold Over Control, maximum fold response relative to 200 μM G418; for EC (100% of 200 uM G418 response): read-out: pC100%, negative logarithm of the concentration giving the same response as 200 μM G418

Row | SMILES | Emax [%] | EC (100% of 200 uM G418 response) [µM] | Fold Over Control (maximum fold response relative to 200 μM G418) | pC100% (negative logarithm of the concentration giving the same response as 200 μM G418)
1 | Cc1cc(C)c2c(N)nc(N[C@H]3CN[C@H](C)C3)nc2n1 [Example 209] | 100 to 3000 | 1 to 10 | – | –
2 | CN1CCC(Nc2nc(N)c3ccc(-c4cccc(C(=O)O)c4)nc3n2)CC1 [Example 83] | 0 to 100 | > 100 | – | –
3 | Nc1nc(NCCCN2CCOCC2)nc2nc(-c3ccccc3)c3c(c12)CCC3 [Example 129, N^3-(3-morpholinopropyl)-6-phenyl-8,9-dihydro-7H-cyclopenta[4,5]pyrido[2,3-d]pyrimidine-1,3-diamine] | – | 1 to 10 | – | –
4 | Cc1cc(C)c2c(N)nc(NCCNCC(F)F)nc2n1 [Example 168] | 100 to 3000 | 10 to 100 | – | –
5 | Cc1cc(C)c2c(N)nc(NC3CCN(Cc4cccc(C(F)(F)F)c4)CC3)nc2n1 [Example 492] | 100 to 3000 | 10 to 100 | – | –
6 | Cc1cc(C)c2c(N)nc(NC3CCN(Cc4ncco4)CC3)nc2n1 [Example 473] | 100 to 3000 | 10 to 100 | – | –
7 | CCNc1nc(N[C@H]2CN(C)C[C@@H]2F)nc2nc(C)cc(C)c12 [Example 393] | 100 to 3000 | 1 to 10 | – | –
8 | Cc1cc(C)c2c(N)nc(NC3CCN(Cc4cn[nH]c4)CC3)nc2n1 [Example 572] | 100 to 3000 | 1 to 10 | – | –
9 | CNS(=O)(=O)c1ccc(CN2CCC(Nc3nc(N)c4c(C)c5c(nc4n3)CCC5)CC2)cc1 [Example 666] | 100 to 3000 | 1 to 10 | – | –
10 | Cc1c2c(nc3nc(NC4CCN(Cc5cccnc5O)CC4)nc(N)c13)CCC2 [Example 664] | 0 to 100 | > 31.6 | – | –
11 | CN1CCC(Nc2nc(N)c3ccc(-c4ccccc4N)nc3n2)CC1 [Example 113] | 100 to 3000 | 10 to 100 | – | –
12 | CNc1nc(N[C@H]2CN(C)C[C@H]2F)nc2nc(C)c(Br)c(C)c12 [Example 613] | – | 1 to 10 | – | –
13 | CNc1nc(N[C@H]2CNC[C@H]2O)nc2nc(C)cc(C)c12 [Example 326] | 0 to 100 | > 31.6 | – | –
14 | Cc1nc2nc(NC3CCN(C)CC3)nc(N)c2cc1-c1cnn(C)c1 [Example 677] | 0 to 100 | > 100 | – | –
15 | Cc1c2c(nc3nc(NC4CCN(Cc5ccccc5C(=O)O)CC4)nc(N)c13)CCC2 [Example 675] | 0 to 100 | > 31.6 | – | –
16 | Cc1cc(C)c2c(N)nc(N[C@@H]3CCNC[C@@H]3O)nc2n1 [Example 573] | – | 1 to 10 | – | –
17 | C#Cc1ccnc2nc(NC3CCN(C)CC3)nc(N)c12 [Example 249, 5-ethynyl-N^2-(1-methylpiperidin-4-yl)pyrido[2,3-d]pyrimidine-2,4-diamine] | 100 to 3000 | 10 to 100 | – | –
18 | CNc1nc(N[C@H]2CNC[C@H]2C)nc2nc(C)cc(C)c12 [Example 380] | 100 to 3000 | 1 to 10 | – | –
19 | Cc1cc(-c2ccccc2)c2c(N)nc(NC3CCN(C)CC3)nc2n1 [Example 13, 7-methyl-N^2-(1-methylpiperidin-4-yl)-5-phenylpyrido[2,3-d]pyrimidine-2,4-diamine] | 0 to 100 | > 31.6 | – | –
20 | Cc1cc(C)c2c(N)cc(NCCCCN(C)C)nc2n1 [Example 254, N^2-(4-(dimethylamino)butyl)-5,7-dimethyl-1,8-naphthyridine-2,4-diamine] | 100 to 3000 | 10 to 100 | – | –

Row | SMILES | Emax [%] | EC (100% of 200 uM G418 response) [µM] | Fold Over Control (maximum fold response relative to 200 μM G418) | pC100% (negative logarithm of the concentration giving the same response as 200 μM G418)
21 | C=C(C)c1cnc2nc(NC3CCN(C)CC3)nc(N)c2c1 [Example 397] | 100 to 3000 | 1 to 10 | – | –
22 | Cc1cc(C)c2c(N)nc(NC3CCN(Cc4ccccc4C#N)CC3)nc2n1 [Example 500] | 100 to 3000 | 1 to 10 | – | –
23 | Cc1cc(C2CCC2)nc2nc(NC3CCN(C)CC3)nc(N)c12 [Example 521, 7-cyclobutyl-5-methyl-N^2-(1-methylpiperidin-4-yl)pyrido[2,3-d]pyrimidine-2,4-diamine] | – | 1 to 10 | – | –
24 | Cc1cc(C)c2c(NC(C)C)nc(N[C@@H]3CCNC3)nc2n1 [Example 323] | 100 to 3000 | 1 to 10 | – | –
25 | Cc1c2c(nc3nc(NC4CCN(Cc5ccccc5NS(C)(=O)=O)CC4)nc(N)c13)CCC2 [Example 671] | 100 to 3000 | 1 to 10 | – | –
26 | Cc1cc(C)c2c(N)nc(NCCCN3CCOCC3)nc2n1 [Example 6, 5,7-dimethyl-N^2-(3-morpholinopropyl)pyrido[2,3-d]pyrimidine-2,4-diamine] | 100 to 3000 | 10 to 100 | – | –
27 | CNc1nc(N[C@H]2CN[C@@H](CO)C2)nc2nc(C)cc(C)c12 [Example 411] | – | 1 to 10 | – | –
28 | Cc1cc(C)c2c(N)nc(NC3CCN(Cc4ccncc4Br)CC3)nc2n1 [Example 559] | 100 to 3000 | 1 to 10 | – | –
29 | CNc1nc(N[C@H]2CN(C)CC[C@H]2O)nc2nc(C)cc(C)c12 [Example 607] | – | 1 to 10 | – | –
30 | Cc1cc(C)c2c(N)nc(N[C@@H]3CN4CCC3CC4)nc2n1 [Example 398] | 0 to 100 | > 31.6 | – | –
31 | CNc1nc(NC2CC3CC2CN3C)nc2nc(C)cc(C)c12 (single isomer, unassigned) [Example 432] | – | – | ## (Fold over Ctrl > 1 ≤ 30) | ++ (pC100% > 5.0 ≤ 6.0)
32 | Cc1cc(C)c2c(N)nc(NC3C[C@H]4CC[C@@H](C3)N4C)nc2n1 (stereo partly drawn) [Example 218] | 100 to 3000 | 1 to 10 | – | –
33 | Cc1cc(C)c2c(N)nc(NC3CCN(Cc4ccc(C(F)(F)F)cc4)CC3)nc2n1 [Example 456] | 100 to 3000 | 1 to 10 | – | –
34 | Cc1ccc(-c2ccc3c(N)nc(NC4CCN(C)CC4)nc3n2)cc1 [Example 101] | – | 1 to 10 | – | –
35 | Cc1cc(C)c2c(N)nc(NC3CCN(Cc4cc(Cl)ccc4O)CC3)nc2n1 [Example 542] | 100 to 3000 | 1 to 10 | – | –
36 | Cc1cc(C)c2c(N)nc(NC3CCN(Cc4cncs4)CC3)nc2n1 [Example 459] | 100 to 3000 | 1 to 10 | – | –
37 | Cc1cc(C)c2c(N)nc(N[C@@H]3CCNC[C@H]3F)nc2n1 [Example 585] | 100 to 3000 | 1 to 10 | – | –
38 | CN1CCC(Nc2nc(N)c3cc4c(nc3n2)CCC4)CC1 [Example 275] | – | 1 to 10 | – | –
39 | CNc1nc(N[C@@H]2CCN(C)C2)nc2nc(C)c3c(c12)CCC3 [Example 337] | – | 0.1 to 1 | – | –
40 | Cc1cc(C)c2c(N)nc(NC3CC4(CCN(C(=O)OC(C)(C)C)CC4)C3)nc2n1 [Example 132] | 0 to 100 | > 100 | – | –

Row | SMILES | Emax [%] | EC (100% of 200 uM G418 response) [µM] | Fold Over Control (maximum fold response relative to 200 μM G418) | pC100% (negative logarithm of the concentration giving the same response as 200 μM G418)
41 | Cc1c2c(nc3nc(N[C@@H]4CCCNC4)nc(N)c13)CCC2 [Example 581] | 100 to 3000 | 0.01 to 0.1 | – | –
42 | Cc1cc(C)c2c(N)nc(N[C@@H]3CCN(Cc4ccc(C#N)cc4)C[C@@H]3O)nc2n1 [Example 562] | 100 to 3000 | 1 to 10 | – | –
43 | Cc1cc(C)c2c(N)nc(NC3CCN(Cc4ccncc4C(F)F)CC3)nc2n1 [Example 533] | 100 to 3000 | 10 to 100 | – | –
44 | CN1CCC(Nc2nc(N)c3cc(-c4cn(C)cn4)cnc3n2)CC1 [Example 644] | 0 to 100 | > 100 | – | –
45 | CN1CCC(Nc2nc(N)c3cc(OC4COC4)cnc3n2)CC1 [Example 28, N^2-(1-methylpiperidin-4-yl)-6-(oxetan-3-yloxy)pyrido[2,3-d]pyrimidine-2,4-diamine] | 0 to 100 | > 100 | – | –
46 | CNc1nc(N[C@@H]2C[C@H](O)CN(C)C2)nc2nc(C)cc(C)c12 [Example 603] | 100 to 3000 | 1 to 10 | – | –
47 | CC#Cc1ccnc2nc(NC3CCN(C)CC3)nc(N)c12 [Example 251, N^2-(1-methylpiperidin-4-yl)-5-(prop-1-yn-1-yl)pyrido[2,3-d]pyrimidine-2,4-diamine] | 100 to 3000 | 10 to 100 | – | –
48 | Cc1cc(C)c2c(N)nc(NC3CCN(Cc4cccc(C(F)F)c4)CC3)nc2n1 [Example 489] | 100 to 3000 | 1 to 10 | – | –
49 | Cc1cc(C)c2c(N)nc(NC3CCN(Cc4cccc(F)c4)CC3)nc2n1 [Example 466] | 100 to 3000 | 1 to 10 | – | –
50 | CNc1nc(N[C@H]2CN(C(C)C)C[C@@H]2O)nc2nc(C)cc(C)c12 [Example 625] | 100 to 3000 | 1 to 10 | – | –
51 | Cc1cc(C)c2c(N)nc(NCCN3CCNC3=O)nc2n1 [Example 160] | 0 to 100 | > 100 | – | –
52 | Cc1cc(C)c2c(N)nc(NCC3CC4(CNC4)C3)nc2n1 [Example 208] | 0 to 100 | > 31.6 | – | –
53 | Cc1cc(C)c2c(N)nc(NC3CCN(Cc4c(F)cccc4F)CC3)nc2n1 [Example 479] | 100 to 3000 | 1 to 10 | – | –
54 | Cc1cc(C)c2c(N)nc(NC3CCN(CC4CC4)CC3)nc2n1 [Example 145] | 100 to 3000 | 1 to 10 | – | –
55 | CNc1nc(N[C@H]2CN[C@@H](COC)C2)nc2nc(C)cc(C)c12 [Example 406] | – | 1 to 10 | – | –
56 | CNc1nc(N[C@H]2CN(C)C[C@@H]2OC(C)=O)nc2nc3c(c(C)c12)CCC3 [Example 683, (3S,4S)-1-methyl-4-((5-methyl-4-(methylamino)-7,8-dihydro-6H-cyclopenta[5,6]pyrido[2,3-d]pyrimidin-2-yl)amino)pyrrolidin-3-yl acetate] | 100 to 3000 | 0.1 to 1 | – | –
57 | CNc1nc(NC2CCNCC2)nc2nc(C)cc(C)c12 [Example 588] | – | 0.1 to 1 | – | –
58 | CNc1nc(N[C@H]2CNC[C@H]2CO)nc2nc(C)cc(C)c12 [Example 418] | – | 1 to 10 | – | –
59 | CNc1nc(NC2CC3CCC2N3C)nc2nc(C)cc(C)c12 (stereo not drawn) [Example 592] | 100 to 3000 | 1 to 10 | – | –
60 | CC(=O)c1ccnc2nc(NC3CCN(C)CC3)nc(N)c12 [Example 309] | 0 to 100 | > 100 | – | –
